According to US20040171489A1, “Synergistic active compound combinations for controlling harmful plants” (priority 1998, published 2004):

Tests used:
Lamium purpurea = experiment: Example 12 field trial, 2- to 4-leaf stage: herbicidal effect; type: in vivo; conditions: 42 days after application
Procedure: (§1) The herbicidal efficacy of the active compounds or active compound mixtures was scored visually using the treated plots in comparison to untreated control plots. The damage and development of all above-ground parts of the plants were recorded. Scoring was carried out using a percentage scale (100% effect=all plants killed; 50% effect=50% of the plants and the green parts of the plants killed; 0% effect=no noticeable effect=like control plot. The scores of in each case 4 plots were averaged.
(§2) If the observed activity values already exceed the formal sum of the values for the trials with the individual applications, they also exceed the expected value according to Colby which is calculated using the following formula and which is likewise considered to be an indication of synergism (cf. S. R. Colby; in Weeds 15 (1967) p. 20 to 22):
(§3) Crop plants were grown outdoors on plots under natural outdoor conditions, and seeds or rhizome pieces of typical harmful plants were laid out or the natural weed growth was utilized. Treatment with the compositions according to the invention was carried out after the harmful plants had emerged and the crop plants were, generally, at the 2- to 4-leaf stage; in some cases (as stated), application of individual active compounds or active compound combinations was carried out pre-emergence (cf. Section 1) or post-emergence (cf. Section 2) or as a sequential treatment partly pre-emergence and/or post-emergence. After the application, for example 2, 4, 6 and 8 weeks after the application, the effect of the preparations was scored visually by comparison with untreated controls (cf. scoring in Section 1). In the field trial as well, the compositions according to the invention have synergistic herbicidal activity against a broad spectrum of economically important weed grasses and broad-leaved weeds. […] Moreover, the effects in essential phases of the scoring period were above the expected values according to Colby, also indicating synergism. In contrast, the crop plants were, as a consequence of the treatments with the herbicidal compositions, damaged only to a small degree, if at all.

Monochoria vaginalis = experiment: Example 22 field trial, 2-leaf stage: herbicidal effect; type: in vivo; conditions: 14 days after application
Procedure: as §1, §2, §3

summer wheat = experiment: Example 14 field trial, 2- to 4-leaf stage: crop damage; type: in vivo, Triticum aestivum; conditions: 28 days after application
Procedure: The damage and development of all above-ground parts of the plants were recorded.
Crop plants were grown outdoors on plots under natural outdoor conditions, and seeds or rhizome pieces of typical harmful plants were laid out or the natural weed growth was utilized.

winter wheat [1] = experiment: Example 9 field trials, application 1-3 leaf stage broad-leaved weeds: crop damage; type: in vivo, Triticum aestivum; conditions: 100 g of ai/ha; 120 to 160 days after application
Procedure: as §1, §2
as §3, with “In contrast, the crop plants were, as a consequence of the treatments with the herbicidal compositions, damaged only to a small degree, if at all.” left out

winter barley = experiment: as above; type: in vivo, Hordeum vulgare; conditions: 100 g of ai/ha; 120 to 160 days after application
Procedure: as §1, §2
as §3, with “In contrast, the crop plants were, as a consequence of the treatments with the herbicidal compositions, damaged only to a small degree, if at all.” left out

winter wheat [2] = experiment: Example 11 field trial, 2- to 4-leaf stage: crop damage; type: in vivo, Triticum aestivum; conditions: 28 days after application
Procedure: as §1, §2, §3

winter wheat [3] = experiment: Example 16 field trial, post-emergence, 2- to 3-leaf stage: crop damage; type: in vivo, Triticum aestivum; conditions: 50 g of ai/ha; 69 days after application
Procedure: as §1, §2
(§4) Crop plants were grown outdoors on plots under natural outdoor conditions, and seeds or rhizome pieces of typical harmful plants were laid out or the natural weed growth was utilized. […] After the application, for example 2, 4, 6 and 8 weeks after the application, the effect of the preparations was scored visually by comparison with untreated controls (cf. scoring in Section 1). […]

Oryza sativa (rice) = experiment: Example 20 field trial, 3-leaf stage: crop damage; type: in vivo; conditions: 31 days after application
Procedure: as §1, §2, §3

Alopecurus myosuroides = experiment: Example 9 field trials, application 1-3 leaf stage broad-leaved weeds: herbicidal effect; type: in vivo; conditions: 100 g of ai/ha; 120 to 160 days after application
Procedure: as §1, §2, §3

Capsella bursa-pastoris = experiment: as above; type: in vivo; conditions: 100 g of ai/ha; 120 to 160 days after application
Procedure: as §1, §2, §3

Zea mays (corn) = experiment: Example 17 field trial, pre-emergence: crop damage; type: in vivo; conditions: 16 days after application
Excerpt: (§5) Seeds or rhizome pieces of monocotyledonous and dicotyledonous weed plants are placed in sandy loam soil in pots and covered with soil. The compositions, formulated in the form of concentrated aqueous solutions, wettable powders or emulsion concentrates, are then applied to the surface of the soil cover as aqueous solution, suspension or emulsion at an application rate of 600 to 800 l of water/ha (converted), in various dosages. After the treatment, the pots are placed in a greenhouse and kept under good growth conditions for the weeds. After the test plants have emerged, the damage to the plants or the negative effects on the emergence is scored visually after a test period of 3 to 4 weeks by comparison with untreated controls. As shown by the test results, the compositions according to the invention have good herbicidal pre-emergence activity against a broad spectrum of weed grasses and broad-leaved weeds.
The herbicidal efficacy of the active compounds or active compound mixtures was scored visually using the treated plots in comparison to untreated control plots. The damage and development of all above-ground parts of the plants were recorded. […]
as §2, §4

Ipomoea hederacea = experiment: Example 17 field trial, pre-emergence: herbicidal effect; type: in vivo; conditions: 16 days after application
Excerpt: as §5, §1, §2, §3

Setaria faberi = experiment: as above; type: in vivo; conditions: 16 days after application
Excerpt: as §5, §1, §2, §3

winter wheat [4] = experiment: Example 15 field trial, 2- to 4-leaf stage: crop damage; type: in vivo, Triticum aestivum; conditions: 28 days after application
Procedure: as §1, §2, §3

With `CC(C)(F)c1nc(N)nc(NC(CCc2ccccc2)C2CCC2)n1` (stereo not drawn) [(A1), 4-amino-6-(1-fluoro-1-methylethyl)-2-(3-phenyl-1-cyclobutylpropylamino)-1,3,5-triazine] as the compound, how does the “herbicidal effect, LAMPU” value (Lamium purpurea; 12.5 g of ai/ha) read?
Its value is 25%.

And the “herbicidal effect, LAMPU” value (Lamium purpurea; 25 g of ai/ha)?
Its value is 65%.

What about the “herbicidal effect, LAMPU” value (Lamium purpurea; 50 g of ai/ha) of the same compound?
The value was 70%.

What about the “herbicidal effect, MOOVA” value (Monochoria vaginalis; 25 g of ai/ha) of the same compound?
The value was 3%.

And the “herbicidal effect, MOOVA” value (Monochoria vaginalis; 50 g of ai/ha)?
Its value is 90%.

What about the “herbicidal effect, MOOVA” value (Monochoria vaginalis; 100 g of ai/ha) of the same compound?
The value was 95%.

And the “damage, TRZAS” value (summer wheat; 25 g of ai/ha)?
The value was 2%.

What about the “damage, TRZAS” value (summer wheat; 50 g of ai/ha) of the same compound?
Its value is 2%.

What about the “damage, TRZAS” value (summer wheat; 100 g of ai/ha) of the same compound?
The value was 5%.

What about the “damage, TRZAW” value (winter wheat [1]) of the same compound?
The value was 0%.

And the “damage, HORVW” value (winter barley)?
The value was 0%.

What about the “damage, TRZAW” value (winter wheat [2]; 25 g of ai/ha) of the same compound?
Its value is 0%.

What about the “damage, TRZAW” value (winter wheat [2]; 50 g of ai/ha) of the same compound?
Its value is 1%.

What about the “damage, TRZAW” value (winter wheat [2]; 75 g of ai/ha) of the same compound?
Its value is 1%.

What about the “damage, TRZAW” value (winter wheat [2]; 100 g of ai/ha) of the same compound?
Its value is 2%.

What about the “herbicidal effect (%), TRZAW (crop)” value (winter wheat [3]) of the same compound?
Its value is 0%.

And the “damage, ORYSA” value (Oryza sativa (rice); 25 g of ai/ha)?
Its value is 0%.

And the “damage, ORYSA” value (Oryza sativa (rice); 50 g of ai/ha)?
The value was 0%.

And the “damage, ORYSA” value (Oryza sativa (rice); 100 g of ai/ha)?
The value was 0%.

And the “herbicidal effect, ALOMY” value (Alopecurus myosuroides)?
The value was 0%.

And the “herbicidal effect, CAPBP” value (Capsella bursa-pastoris)?
The value was 88%.

What about the “damage, ZEAMA” value (Zea mays (corn); 50 g of ai/ha) of the same compound?
Its value is 0%.

And the “damage, ZEAMA” value (Zea mays (corn); 100 g of ai/ha)?
Its value is 0%.

What about the “herbicidal effect, IPOHE” value (Ipomoea hederacea; 50 g of ai/ha) of the same compound?
Its value is 85%.

What about the “herbicidal effect, IPOHE” value (Ipomoea hederacea; 100 g of ai/ha) of the same compound?
Its value is 93%.

What about the “herbicidal effect, SETFA” value (Setaria faberi; 50 g of ai/ha) of the same compound?
The value was 85%.

And the “herbicidal effect, SETFA” value (Setaria faberi; 100 g of ai/ha)?
Its value is 94%.

And the “damage, TRZAW” value (winter wheat [4]; 25 g of ai/ha)?
Its value is 0%.

And the “damage, TRZAW” value (winter wheat [4]; 50 g of ai/ha)?
Its value is 2%.

What about the “damage, TRZAW” value (winter wheat [4]; 100 g of ai/ha) of the same compound?
The value was 2%.
